Reference: patent US20050145258A1, “Composition, Method and Device for Blood Supply Fluctuation Therapy” (priority 2004, published 2005)

Experiments:
liver cancer = format: in vivo, human
Description: The inlet tube member 2 was connected to gas resource of gaseous CO2. 500 ml of the gaseous CO2 was introduced into storing bag for cleaning the air within the storing bag and delivery system. T Stopcock 1 in inlet tube member 2 was turned off to stop the gas into storing bag temporally. The gaseous CO2 in storing bag 3 was aspirated into syringe 6, then impelled by the syringe 6. Due to the function of check valve, during the aspirating of syringe, the first check valve 5 was open; meanwhile the second and third check valves were closed automatically. The gas in the storing bag was aspirated into syringe 6. During the impelling of syringe, the first check valve was closed and the second and third check valves were open automatically. The gaseous CO2 in the syringe is impelled out of the delivery device through the outlet of the third three-way stopcock. Repeating syringe aspirating and impelling until all gas in the storing bag was emptied, and the air within storing bag and delivery device was cleaned. After that, the stopcock on the inlet tubular member was turned on again to introduce the gaseous CO2 from the gas resource into storing bag 3 to fill the storing bag (2000 ml), then the stopcock 1 was turned off to stop gaseous CO2 introduction. The gaseous CO2 and delivery system was ready for use. […] The delivery catheter 13 was connected to the outlet of the third three-way stopcock of the delivery system, and the air within the catheter 13 was removed. Using the gaseous CO2 as contrast medium, 50 ml gaseous CO2 at rate of 10 ml/second was injected by syringe 6 into the hepatic artery to perform a diagnostic DSA. The diagnostic DSA was used to identify the location, size of tumor, arteries supplying blood to liver cancer, blood flow within tumor tissue and time gaseous CO2 staying in tumor vessels. All those information was necessary to doctor to select an optimal protocol of Blood Supply Fluctuation Therapy (BSFT). Then, the angiographic catheter was advanced into the artery supplying blood flow to the liver cancer. […] Blood Supply Fluctuation Therapy (BSFT) with Gaseous CO2: gaseous CO2 was injected slowly by the delivery syringe 6 through the catheter 13 into the tumor vasculature. […] The gas displaces the blood flow within the tumor vessels partially or entirely depending on the injection rate and lasting time. With increasing of the gaseous mixture, the blood supply to the liver cancer was decreased, even stopped. Because tumor vasculature was immature, “vapor lock” in tumor vasculature was produced by the gaseous CO2. With decreasing and stopping of the blood flow of tumor vasculature, the gaseous CO2 injected through delivery catheter might overflow into the arteries supplying normal liver tissue that could be detected and monitored by X-ray fluoroscopy, DSA, CT or ultrasound imaging. Because the gaseous CO2 was absorbable in blood and could be flushed away in normal vasculature within one minute, therefore the gaseous CO2 overflowing into normal vasculature caused no damage in normal liver tissue. At this time, gaseous CO2 delivery was stopped. Due to vapor lock, there was no blood flow in tumor vasculature and no nutrition and oxygen was delivery to tumor cells, which made it under starvation and hypoxia. Meanwhile also due to the vapor lock, area of the CO2 bubbles contacting with blood was getting much smaller, which limits CO2 absorbability and prolongs CO2 gas staying within tumor vasculature. […] Under X-ray fluoroscopy, the tumor looked like a balloon filled with gas (FIG. 9). Thirty minutes after injection of CO2 about half of the gas still remained in the tumor (FIG. 10).

uterine fibroids = assay: Blood supply fluctuation therapy with gaseous mixture of CO2 and nitric oxide in patients with uterine fibroids; format: in vivo, human
From the text: Preparation of gaseous mixture of CO2 and Nitric Oxide: the preparation procedure was same as that of gaseous CO2 in example 1, except the gaseous material was not CO2, but the gaseous mixture of CO2 and Nitric Oxide (NO). The concentration of NO was present in an amount effective to prevent vasospasm and ischemia, 40 ppm here.
Selective catheterization and diagnostic Digital Subtraction Angiogrpahy (DSA) with Gaseous Mixture of CO2 and Nitric Oxide (NO): under monitoring of X-ray fluoroscope and using interventional technique of selective catheterization, a delivery catheter was inserted into the internal iliac artery in the patients with uterine fibroids. […]
Blood Supply Fluctuation Therapy (BSFT) with Gaseous Mixture of CO2 and Nitric Oxide (NO): gaseous mixture of CO2 and Nitric Oxide (NO) was injected slowly and intermittently by the delivery syringe through the delivery catheter into tumor vasculature at the rate of 1 ml/s and with 5 minutes interval each 20 ml injection. […] With the decreasing and stopping of the blood flow of tumor vasculature, the gaseous mixture injected through delivery catheter might overflows into the arteries supplying normal uterine wall that could be detected and monitored by X-ray fluoroscopy, DSA, CT or ultrasound imaging. […]

- CO2 bubbles in immature tumor vasculature, DSA imaging (liver cancer; human, in vivo): filled and accumulated
- CO2 bubbles in normal liver tissue, DSA imaging (liver cancer; human, in vivo): no bubbles accumulated
- discomfort felt by patients receiving the injection (liver cancer; human, in vivo): minor discomfort on liver area
- time CO2 accumulates and stays in abnormal vasculature (liver cancer; human, in vivo): for hours, even for days
- time to be flushed away in normal vasculature (liver cancer; human, in vivo): one
- gas seen in normal uterine tissue, CT scan (uterine fibroids; human, in vivo): No gas
SMILES: O=C=O [CO2, carbon dioxide]
- damage in normal liver tissue (liver cancer; human, in vivo): no damage
- vapor lock in tumor vasculature (liver cancer; repeated 50 ml injections through catheter): produced
- filling of liver tumor with CO2, X-ray (liver cancer; tumor 7 cm in diameter, total of 500 ml CO2, 3-5 ml/s, 3-5 minutes interval each 50 ml injection): fully filled
- vapor lock in tumor vasculature, CT scan (uterine fibroids; 45 minutes after BSFT): produced
